Data as given in US20200298233A1, “MICROFLUIDIC PAPER CHIP FOR DETECTING MICRO-ORGANISM, METHOD FOR PREPARING THE SAME AND METHOD FOR DETECTING MICRO-ORGANISM USING THE SAME” (BIOMAX CO., LTD., priority 2017, published 2020).
Values joined by “and” are separate entries in the source; they are usually repeats but may differ in a detail not shown here. Equal entries are not always repeated.

Experiments:
Vibrio vulnificus [1] = test: Coloring reaction test of chromogenic reagents, 96 well plate; format: biochemical; details: chromogenic reagent terminal concentration 10 mM, 30 minutes at 37° C.
[2] = system: 5 food risk microorganisms; test: Bacterial lysis efficacy by optical density, overall statements; format: cell-based; details: table 7
Staphylococcus aureus [3] = test: Coloring reaction test of chromogenic reagents, 96 well plate; format: biochemical; details: chromogenic reagent terminal concentration 10 mM, 30 minutes at 37° C.
Salmonella spp. [4] = test: as above; format: biochemical; details: chromogenic reagent terminal concentration 10 mM, 30 minutes at 37° C.
Listeria monocytogenes = test: Bacterial lysis efficacy by measuring optical density (OD); format: cell-based; details: initial O.D = 0.8336
Staphylococcus aureus [5] = test: as above; format: cell-based; details: initial O.D = 1.1877
Vibrio vulnificus [6] = test: as above; details: initial O.D = 0.6143
Esherichia coli O157 = test: as above; format: cell-based, Escherichia coli O157; details: initial O.D = 0.8139
Salmonella spp. [7] = test: as above; details: initial O.D = 1.4448

## 5-Bromo-6-chloro-3-indolyl-beta-D-glucopyranoside [Magenta-beta-glucopyranoside]
Vibrio vulnificus [1]
  coloring reaction: unique coloring reaction

## 5-bromo-4-chloro-3-indoxyl-alpha-D-glucopyranoside [X-alpha-glucospyranoside]
Vibrio vulnificus [1]
  coloring reaction: unique coloring reaction

## CCCCCCCc1ccc(C(O)CC[N+](C)(C)CCCS(=O)(=O)[O-])cc1 (stereo not shown) [C7BzO, 3-[[3-(4-heptylphenyl)-3-hydroxypropyl]-dimethylazaniumyl]propane-1-sulfonate]
[2]
  lysis efficacy on addition to 1% (v/v) SB3-14: increased the most

## CCCCCCCC(=O)Oc1c[nH]c2cc(Cl)c(Br)cc12 [Magenta-caprylate, 5-Bromo-6-chloro-3-indoxyl caprylate]
Staphylococcus aureus [3]
  coloring reaction: showed coloring reaction
Salmonella spp. [4]
  coloring reaction: higher intensity and speed

## CCCCCCCCCCCC[N+](C)(C)CCCS(=O)(=O)[O-] [SB3-10, 3-(Dodecyldimethylammonio)propane-1-sulfonate]
Listeria monocytogenes; detergent 0.1%
  Optical density: 0.7689 and 0.8003 and 0.7683
Listeria monocytogenes; detergent 0.5%
  Optical density: 0.7694 and 0.7802 and 0.7866
Listeria monocytogenes; detergent 1%
  Optical density: 0.7935 and 0.7994 and 0.8055
Listeria monocytogenes; detergent 2%
  Optical density: 0.7242 and 0.7341 and 0.7357
Listeria monocytogenes; detergent 3%
  Optical density: 0.6917 and 0.7252 and 0.7227
Listeria monocytogenes; detergent 5%
  Optical density: 0.8414 and 0.8448 and 0.8431
Staphylococcus aureus [5]; detergent 0.1%
  Optical density: 0.9335 and 0.9313 and 0.9293
Staphylococcus aureus [5]; detergent 0.5%
  Optical density: 0.9517 and 0.9486 and 0.9454
Staphylococcus aureus [5]; detergent 1%
  Optical density: 0.8872 and 0.8856 and 0.8847
Staphylococcus aureus [5]; detergent 2%
  Optical density: 0.8495 and 0.8478 and 0.8480
Staphylococcus aureus [5]; detergent 3%
  Optical density: 0.5582 and 0.5458 and 0.5385
Staphylococcus aureus [5]; detergent 5%
  Optical density: 0.8456 and 0.8446 and 0.8442
Vibrio vulnificus [6]; detergent 0.1%
  Optical density: 0.3351 and 0.3199 and 0.3176
Vibrio vulnificus [6]; detergent 0.5%
  Optical density: 0.2124 and 0.2149 and 0.2105
Vibrio vulnificus [6]; detergent 1%
  Optical density: 0.1822 and 0.1758 and 0.1891
Vibrio vulnificus [6]; detergent 2%
  Optical density: 0.1627 and 0.1647 and 0.1624
Vibrio vulnificus [6]; detergent 3%
  Optical density: 0.0869 and 0.0865 and 0.0893
Vibrio vulnificus [6]; detergent 5%
  Optical density: 0.1477 and 0.1578 and 0.1677
Esherichia coli O157; detergent 0.1%
  Optical density: 0.5979 and 0.5907 and 0.5816
Esherichia coli O157; detergent 0.5%
  Optical density: 0.6803 and 0.6818 and 0.6832
Esherichia coli O157; detergent 1%
  Optical density: 0.5228 and 0.5223 and 0.5253
Esherichia coli O157; detergent 2%
  Optical density: 0.5845 and 0.5861 and 0.5779
Esherichia coli O157; detergent 3%
  Optical density: 0.6355 and 0.6371 and 0.6311
Esherichia coli O157; detergent 5%
  Optical density: 0.8160 and 0.8061 and 0.8134
Salmonella spp. [7]; detergent 0.1%
  Optical density: 0.9125 and 0.9111 and 0.9138
Salmonella spp. [7]; detergent 0.5%
  Optical density: 0.4241 and 0.4359
Salmonella spp. [7]; detergent 1%
  Optical density: 0.4611 and 0.4597 and 0.4705
Salmonella spp. [7]; detergent 2%
  Optical density: 0.4310 and 0.4345
Salmonella spp. [7]; detergent 3%
  Optical density: 0.4184 and 0.4186 and 0.4199
Salmonella spp. [7]; detergent 5%
  Optical density: 0.9464 and 0.9488 and 0.9479

## CCCCCCCCCCCCCCCC[N+](C)(C)CCCS(=O)(=O)[O-] [SB3-16, 3-(Hexadecyldimethylammonio)propane-1-sulfonate]
Listeria monocytogenes; detergent 0.1%
  Optical density: 0.7770 and 0.8027 and 0.8073
Listeria monocytogenes; detergent 0.5%
  Optical density: 0.7764 and 0.7530 and 0.7657
Listeria monocytogenes; detergent 1%
  Optical density: 0.8133 and 0.8142 and 0.8238
Listeria monocytogenes; detergent 2%
  Optical density: 0.7546 and 0.7725 and 0.7891
Listeria monocytogenes; detergent 3%
  Optical density: 0.7213 and 0.7797 and 0.7969
Listeria monocytogenes; detergent 5%
  Optical density: 0.6344 and 0.6340 and 0.6042
Staphylococcus aureus [5]; detergent 0.1%
  Optical density: 1.0492 and 1.0472 and 1.0449
Staphylococcus aureus [5]; detergent 1%
  Optical density: 1.1763 and 1.1734 and 1.1719
Staphylococcus aureus [5]; detergent 2%
  Optical density: 1.0764 and 1.0741 and 1.0744
Staphylococcus aureus [5]; detergent 3%
  Optical density: 1.0675 and 1.0649 and 1.0654
Staphylococcus aureus [5]; detergent 5%
  Optical density: 1.0721 and 1.0700 and 1.0711
Vibrio vulnificus [6]; detergent 0.1%
  Optical density: 0.1196 and 0.1210 and 0.1170
Vibrio vulnificus [6]; detergent 0.5%
  Optical density: 0.0680 and 0.0627 and 0.0656
Vibrio vulnificus [6]; detergent 1%
  Optical density: 0.0553 and 0.0506 and 0.0521
Vibrio vulnificus [6]; detergent 2%
  Optical density: 0.0399 and 0.0421 and 0.0383
Vibrio vulnificus [6]; detergent 3%
  Optical density: 0.0395 and 0.0407 and 0.0453
Vibrio vulnificus [6]; detergent 5%
  Optical density: 0.0324 and 0.0317 and 0.0323
Esherichia coli O157; detergent 0.1%
  Optical density: 0.9950 and 1.0011 and 0.9956
Esherichia coli O157; detergent 0.5%
  Optical density: 1.0314 and 1.0172 and 1.0085
Esherichia coli O157; detergent 1%
  Optical density: 0.8049 and 0.7896 and 0.7856
Esherichia coli O157; detergent 2%
  Optical density: 0.8432 and 0.8338 and 0.8284
Esherichia coli O157; detergent 3%
  Optical density: 0.8710 and 0.8653 and 0.8610
Esherichia coli O157; detergent 5%
  Optical density: 0.9536 and 0.9258 and 0.9244
Salmonella spp. [7]; detergent 0.1%
  Optical density: 0.6487 and 0.6399 and 0.6538
Salmonella spp. [7]; detergent 0.5%
  Optical density: 0.7598 and 0.7515 and 0.7651
Salmonella spp. [7]; detergent 1%
  Optical density: 0.4932 and 0.4918 and 0.4892
Salmonella spp. [7]; detergent 2%
  Optical density: 0.4688 and 0.4680 and 0.4676
Salmonella spp. [7]; detergent 3%
  Optical density: 0.4487 and 0.4508 and 0.4516
Salmonella spp. [7]; detergent 5%
  Optical density: 0.4594 and 0.4580 and 0.4632

## OC[C@H]1O[C@H](Oc2c[nH]c3cc(Cl)ccc23)[C@H](O)[C@@H](O)[C@@H]1O [Salmon-alpha-glucospyranoside, 6-Chloro-3-indoxyl-alpha-D-glucopyranoside]
Staphylococcus aureus [3]
  coloring reaction: unique coloring reaction
Salmonella spp. [4]
  coloring reaction: unique and strong coloring reaction
Vibrio vulnificus [1]
  coloring reaction: unique coloring reaction

## O=P([O-])([O-])Oc1c[nH]c2ccc(Br)c(Cl)c12.[Na+].[Na+] [X-phosphate, 5-Bromo-4-chloro-3-indoxyl phosphate, disodium salt]
Staphylococcus aureus [3]
  coloring reaction: unique coloring reaction
Salmonella spp. [4]
  coloring reaction: unique and strong coloring reaction

## Triton X-100
Listeria monocytogenes; detergent 0.1%
  Optical density: 0.7013 and 0.7077 and 0.7059
Listeria monocytogenes; detergent 0.5%
  Optical density: 0.7398 and 0.7403 and 0.7414
Listeria monocytogenes; detergent 1%
  Optical density: 0.6622 and 0.6765 and 0.6766
Listeria monocytogenes; detergent 2%
  Optical density: 0.7014 and 0.7164 and 0.7099
Listeria monocytogenes; detergent 3%
  Optical density: 0.6407 and 0.6609 and 0.6608
Listeria monocytogenes; detergent 5%
  Optical density: 0.6213 and 0.6340 and 0.6310
Staphylococcus aureus [5]; detergent 0.1%
  Optical density: 1.1248 and 1.1255 and 1.1291
Staphylococcus aureus [5]; detergent 1%
  Optical density: 1.2024 and 1.2028 and 1.2027
Staphylococcus aureus [5]; detergent 2%
  Optical density: 1.2247 and 1.2245 and 1.2231
Staphylococcus aureus [5]; detergent 3%
  Optical density: 1.1855 and 1.1810 and 1.1826
Staphylococcus aureus [5]; detergent 5%
  Optical density: 1.2147 and 1.2108 and 1.2034
Vibrio vulnificus [6]; detergent 0.1%
  Optical density: 0.3916 and 0.3935 and 0.3923
Vibrio vulnificus [6]; detergent 0.5%
  Optical density: 0.3421 and 0.3417 and 0.3437
Vibrio vulnificus [6]; detergent 1%
  Optical density: 0.2844 and 0.2794 and 0.2801
Vibrio vulnificus [6]; detergent 2%
  Optical density: 0.3044 and 0.3089 and 0.3046
Vibrio vulnificus [6]; detergent 3%
  Optical density: 0.2947 and 0.2950 and 0.2966
Vibrio vulnificus [6]; detergent 5%
  Optical density: 0.2499 and 0.2478 and 0.2431
Esherichia coli O157; detergent 0.1%
  Optical density: 0.8888 and 0.8930 and 0.8848
Esherichia coli O157; detergent 1%
  Optical density: 0.9722 and 0.9715 and 0.9720
Esherichia coli O157; detergent 2%
  Optical density: 0.9793 and 0.9819 and 0.9767
Esherichia coli O157; detergent 3%
  Optical density: 0.9052 and 0.9049 and 0.9035
Esherichia coli O157; detergent 5%
  Optical density: 0.9238 and 0.9183 and 0.9254
Salmonella spp. [7]; detergent 0.1%
  Optical density: 1.0968 and 1.0927 and 1.0890
Salmonella spp. [7]; detergent 0.5%
  Optical density: 1.0965 and 1.0899 and 1.1089
Salmonella spp. [7]; detergent 1%
  Optical density: 0.8827 and 0.8879 and 0.8963
Salmonella spp. [7]; detergent 2%
  Optical density: 0.9457 and 0.9452 and 0.9464
Salmonella spp. [7]; detergent 3%
  Optical density: 0.8287 and 0.8303 and 0.8231
Salmonella spp. [7]; detergent 5%
  Optical density: 0.8258 and 0.8240 and 0.8249
